Measured values as given in patent US20070093476A1, “Novel compounds and their use in medicine,as antidiabetic and hypolipidemic agents, process for their preparation and pharmaceutical compositions containing them” (priority 2003, published 2007).
Where a name gives a salt, the structure may show the parent alone. Read-outs that look alike come from different tables or passages of the source.

What was measured:
[1] = target: T1, hPPARα (Homo sapiens, UniProt Q07869); test: Determination of hPPARα activity (GAL4-LBD luciferase reporter transactivation in HEK-293 cells); assay type: cell-based; settings: 50 μM compound
T1 construct: expressed in transfected cells; host or cells: HEK-293
T1 sequence (Q07869 239-466 limits assumed): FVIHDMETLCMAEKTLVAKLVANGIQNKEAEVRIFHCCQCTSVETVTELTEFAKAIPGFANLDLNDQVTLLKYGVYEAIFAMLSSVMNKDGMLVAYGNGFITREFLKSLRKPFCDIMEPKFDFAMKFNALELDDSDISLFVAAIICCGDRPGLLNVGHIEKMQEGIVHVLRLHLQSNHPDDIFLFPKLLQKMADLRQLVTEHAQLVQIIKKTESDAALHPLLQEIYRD
Protocol: a) Determination of hPPARα Activity Ligand binding domain of hPPARα was fused to […] of Yeast transcription factor GAL4 in eucaryotic expression vector. Using superfect (Qiagen, Germany) as transfecting reagent HEK-293 cells are transfected with this plasmid and a reporter plasmid harboring the luciferase gene driven by a GAL4 specific promoter. Compound can be added at different concentrations after 42 hrs of transfection and incubated overnight. Luciferase activity as a function of compound binding/activation capacity of PPARα will be measured using Packard Luclite kit (Packard, USA) in Top Count (Ivan Sadowski, Brendan Bell, Peter Broag and Melvyn Hollis. Gene. 1992. 118 : 137-141; Superfect Transfection Reagent Handbook. February 1997. Qiagen, Germany).

[2] = system: Swiss albino mice; test: Plasma triglyceride lowering activity in Swiss albino mice; assay type: in vivo; settings: Mus musculus, 144 h, read-out: % of Reduction in Triglyceride
Protocol: b) Plasma Triglyceride and Total Cholesterol Lowering Activity in Swiss Albino Mice and Guinea Pigs
Male Swiss albino mice (SAM) and male Guinea pigs are obtained from NIN and housed in DRF animal house. All these animals are maintained under 12 hour light and dark cycle at 25±1° C. Animals are given standard laboratory chow (NIN, Hyderabad, India) and water, ad libitum. SAM of 20-25 g body weight range and Guinea pigs of 500-700 g body weight range are used (Oliver, P., Plancke, M. O., Marzin, D., Clavey, V., Sauzieres, J and Fruchart, J. C. Effects of fenofibrate, gemfibrozil and nicotinic acid on plasma lipoprotein levels in normal and hyperlipidemic mice. Atherosclerosis. 1988. 70 : 107-114).
The test compounds can be administered orally to Swiss albino mice at 0.3 to 30 mg/kg/day dose for 6 days. Control mice are treated with vehicle (0.25% Carboxymethylcellulose; dose 10 ml/kg). The test compounds are administered orally to Guinea pigs at 0.3 to 30 mg/kg/day dose for 6 days. Control animals are treated with vehicle (0.25% Carboxymethylcellulose; dose 5 ml/kg).
The blood samples can be collected in fed state 1 hour after drug administration on 0 and 6 day of treatment. The blood can be collected from the retro-orbital sinus through heparinised capillary in EDTA containing tubes. After centrifugation, plasma sample was separated for triglyceride and total cholesterol (Wieland, O. Methods of Enzymatic analysis. Bergermeyer, H. O., Ed., 1963. 211-214; Trinder, P. Ann. Clin. Biochem. 1969. 6 : 24-27). Measurement of plasma triglyceride, total cholesterol and HDL are done using commercial kits (Dr. Reddy's Diagnostic Division, Hyderabad, India).

[3] = target: T2, hPPARγ1 (Homo sapiens, UniProt P37231); test: Determination of hPPARγ activity (GAL4-LBD luciferase reporter transactivation in HEK-293 cells); assay type: cell-based; settings: 1 μM compound
T2 construct: expressed in transfected cells; host or cells: HEK-293
T2 sequence (P37231 238-503 limits assumed): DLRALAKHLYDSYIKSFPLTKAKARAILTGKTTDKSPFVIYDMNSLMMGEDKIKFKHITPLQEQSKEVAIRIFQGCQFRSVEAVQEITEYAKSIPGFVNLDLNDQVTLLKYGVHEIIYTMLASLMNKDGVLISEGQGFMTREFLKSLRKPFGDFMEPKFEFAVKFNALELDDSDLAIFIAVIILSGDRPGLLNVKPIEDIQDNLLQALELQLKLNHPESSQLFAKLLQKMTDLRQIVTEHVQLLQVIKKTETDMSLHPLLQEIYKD
Protocol: b) Determination of hPPARγ Activity
Ligand binding domain of hPPARγ1 is fused to DNA binding domain of Yeast transcription factor GAL4 in eucaryotic expression vector. Using lipofectamine (Gibco BRL, USA) as transfecting reagent HEK-293 cells are transfected with this plasmid and a reporter plasmid harboring the luciferase gene driven by a GAL4 specific promoter. Compound can be added at 1 μM concentration after 48 hrs of transfection and incubated overnight Luciferase activity as a function of drug binding/activation capacity of PPARγ1 will be measured using Packard Luclite kit (Packard, USA) in Packard Top Count (Ivan Sadowski, Brendan Bell, Peter Broag and Melvyn Hollis. Gene. 1992. 118 : 137-141; Guide to Eukaryotic Transfections with Cationic Lipid Reagents. Life Technologies, GIBCO BRL, USA).

[4] = system: C57BL/KsJ-db/db mice; test: Efficacy in genetic model: plasma glucose and triglyceride lowering in db/db mice; assay type: in vivo; settings: 3 mg/kg/d oral gavage, 6 days
Text: a) Efficacy in Genetic Models
Mutation in colonies of laboratory animals and different sensitivities to dietary regimens have made the development of animal models with non-insulin dependent diabetes and hyperlipidemia associated with obesity and insulin resistance possible. Genetic models such as db/db and ob/ob (Diabetes, (1982) 31(1) : 1-6) mice and zucker fa/fa rats have been developed by the various laboratories for understanding the pathophysiology of disease and testing the efficacy of new antidiabetic compounds (Diabetes, (1983) 32: 830-838; Annu. Rep. Sankyo Res. Lab. (1994). 46: 1-57). The homozygous animals, C57 BL/KsJ-db/db mice developed by Jackson Laboratory, US, are obese, hyperglycemic, hyperinsulinemic and insulin resistant (J. Clin. Invest., (1990) 85 : 962-967), whereas heterozygous are lean and normoglycemic. […]
The random blood sugar and triglyceride levels can be measured by collecting blood (100 μl) through orbital sinus, using heparinised capillary in tubes containing EDTA which was centrifuged to obtain plasma. The plasma glucose and triglyceride levels can be measured spectrometrically, by glucose oxidase and glycerol-3-PO4 oxidase/peroxidase enzyme (Dr. Reddy's Lab. Diagnostic Division Kits, Hyderabad, India) methods respectively.

[5] = Swiss albino mice, 3 mg/kg/d oral, 6 days

melting point [°C] | Compound | PPAR fold activation, PPAR α at 50 μM concentration [1] [fold] | inhibition in vivo at 3 mg/kg/day [2, 5] [%] | PPAR fold activation, PPAR γ at 1 μM concentration [3] [fold] | inhibition in vivo at 3 mg/kg/day ([2]; po) [%] | % of Reduction in Triglyceride [4] [%] | % of reduction in Plasma glucose [4] [%]
118 to 120 | CCOC(=O)C(Cc1ccc(NCc2ccc3cc(OS(C)(=O)=O)ccc3c2)cc1)OCC (stereo not shown) [Example 2, Ethyl 2-ethoxy-3-[4-{6-methanesulfonyloxynapth-2-ylmethylamino}phenyl]propanoate] | 3.5 | 50 | 15.5 | – | – | –
168 to 170 | CCOC(Cc1ccc(NCc2ccc3cc(OS(C)(=O)=O)ccc3c2)cc1)C(=O)O (stereo not shown) [Example 24, 2-Ethoxy-3-[4-{6-methanesulfonyloxynapth-2-ylmethylamino}phenyl]propanoic acid] | 7.4 | 46 | 4.5 | – | – | –
– | CO[C@@H](Cc1ccc(NCc2ccc3cc(OS(C)(=O)=O)ccc3c2)cc1)C(=O)O [Example 45, (S)-2-Methoxy-3-[4-{6-methanesulfonyloxynapth-2-ylmethylamino}phenyl]propanoic acid Arginine salt] | 5.2 | – | 1.4 | 60 | 28 | 32
– | CO[C@@H](Cc1ccc(NCCCn2ccc3ccccc32)cc1)C(=O)O [Example 48, (S)-2-Methoxy-3-[4-{3-(indol-1-yl)propylamino}phenyl]propanoic acid Arginine salt] | 4.6 | – | 6.1 | 27 | – | –
– | CCO[C@@H](Cc1ccc(NCCCn2ccc3cc(OS(C)(=O)=O)ccc32)cc1)C(=O)O [Example 49, (S)-2-Ethoxy-3-[4-{3-(5-methanesulfonyloxyindol-1-yl)propylamino}phenyl]propanoic acid Arginine salt] | 3.6 | – | 1.5 | 54 | – | –
– | CO[C@@H](Cc1ccc(NCCCn2ccc3cc(OS(C)(=O)=O)ccc32)cc1)C(=O)O [Example 50, (S)-2-Methoxy-3-[4-{3-(5-methanesulfonyloxyindol-1-yl)propylamino}phenyl]propanoic acid Arginine salt] | 3.5 | – | 1.4 | 31 | – | –
– | CCOC(Cc1ccc(NCC2CCc3cc(OS(C)(=O)=O)ccc3C2)cc1)C(=O)O (stereo not shown) [Example 53, 2-Ethoxy-3-[4-{(6-methanesulfonyloxy-1,2,3,4-tetrahydronapth-2-yl)methylamino}phenyl]propanoic acid Arginine salt] | 3.7 | – | 5.8 | 79 | – | –
– | CCOC(Cc1ccc(NCCCN2CCCc3ccccc32)cc1)C(=O)O (stereo not shown) [Example 55, 2-Ethoxy-3-[4-{3-1,2,3,4-tetrahydroquinolyn-1-yl)propylamino}phenyl]propanoic acid Arginine salt] | 3.8 | – | 11.9 | 60 | – | –
